The source of these data is US20220380357A1, “TETRAHYDROISOQUINOLINE COMPOUNDS” (ALLINKY BIOPHARMA, priority 2019, published 2022).

SMILES strings stand for the structures.

Holding throughout (assay type): cell-based
The subject of experiment [1] is PANC-1. epithelioid carcinoma of the pancreas cell line bearing KRas^G12D oncogenic mutation. Kind of experiment: Antiproliferative MTS assay, PANC-1 cells. The settings on record: Homo sapiens, PANC-1, 72 h, compounds 1-23 and 47-52 median of experiments, 24-46 estimations and/or preliminary results, read-out: IC50 values: cell proliferation inhibition, Panc-1. The protocol:
Cell line #3: PANC-1. epithelioid carcinoma of the pancreas cell line bearing KRas^G12D oncogenic mutation
(§1) Cell lines were cultured in DMEM or RPMI-1640 supplemented with FBS 10%. In order to assess the antiproliferative effect of compounds, cells were seeded at a density of 1.8×10^3, 6.2×10^3, 7.8×10^3, 21×10^3 and 2×10^3 cells/cm^2, respectively, in tissue culture microplates and were incubated in humidified atmosphere at 5% CO2. 24 h later, compounds dissolved in DMSO 100% were added for different final concentrations ranging between 0.1 and 50 μM for a final DMSO concentration of 0.5% and the plates were incubated for another 72 h. After incubation, proliferation was quantified using CellTiter 96® Aqueous Non-Radioactive Cell Proliferation Assay-MTS (Promega #G5421) following manufacturer instructions. Amount of 490 nm absorbance is directly proportional to the number of living cells. Absorbance was recorded with a BMG Fluostar Optima Microplate Reader and normalized to control with vehicle.

Experiment [2] relates to RPMI. myeloma cell line bearing KRas^G12A oncogenic mutation. As to the kind of experiment: Antiproliferative MTS assay, RPMI cells. As to conditions: 72 h, compounds 1-23 and 47-52 median of experiments, 24-46 estimations and/or preliminary results, read-out: IC50 values: cell proliferation inhibition, RPMI. The protocol: Cell line #4: RPMI. myeloma cell line bearing KRas^G12A oncogenic mutation
as §1

Experiment [3] concerns NIH-H358 Cell Line. As to the kind of experiment: 3D CellTiter-Glo cell viability assay. The settings on record: 168 h, NIH-H358 cells in 0.65% methylcellulose, 7 days' compound treatment. The protocol: Example 5: Efficacy Testing in 3D Viability Assay for NIH-H358 Cell Line
The protocol to perform 3D CellTiter-Glo™ cell viability assay is as follows:
Day—1: Cell plating • Adjust cell concentrations to 1×10^5 cells/ml with respective medium. (Cell concentration is adjusted according to data base or density optimization assay). Mix 3.5 mL of cell suspension 6.5 mL of 1% methylcellulose. Mix and wait for bubbles to disperse before pipetting. This step yields 10 ml of cell suspension in 0.65% methylcellulose solution. Add 99.5 μL cell suspensions to 96-well plates according to plate map with final cell density. • Two duplicate plates will be set up. One is for day 0 reading (T0) and the other will be cultured in incubator for reading at the end point. • Incubate the plates overnight in humidified incubator at 37° C. with 5% CO2.
Day 0: T0 plate reading and compound treatment • Take T0 plate, add 0.5 μL culture medium to each well for T0 reading. • Add 100 μl CellTiter-Glo® Reagent to each well. • Mix contents for 2 minutes on an orbital shaker to facilitate cell lysis. • Allow the plate to incubate at room temperature for 10 minutes to stabilize luminescent signal. • Record luminescence using EnVision Multi Label Reader. • Dilute the test articles at the concentration indicated at Test Articles Dilution. Add 0.5 μL of each 200× compound working solutions according to plate inoculation map.
Day 7: Plate reading of 7 days' compound treatment • Add 100 μL CellTiter-Glo® Reagent to each well. • Mix contents for 2 minutes on an orbital shaker to facilitate cell lysis. • Allow the plate to incubate at room temperature for 10 minutes to stabilize luminescent signal. • Record luminescence using EnVision Multi Label Reader.

For experiment [4], the system named is H358. non-small cell lung cancer line bearing KRas^G12C oncogenic mutation. Kind of experiment: Antiproliferative MTS assay, H358 cells. The settings on record: Homo sapiens, NCI-H358, 72 h, compounds 1-23, 47-52 and Reference Example 1 median of experiments, 24-46 estimations and/or preliminary results, read-out: IC50 values: cell proliferation inhibition, H358. The protocol: Cell line #2: H358. non-small cell lung cancer line bearing KRas^G12C oncogenic mutation
as §1

In experiment [5] the test system is A549. Lung carcinoma cell line bearing KRas^G12S oncogenic mutation. Kind of experiment: Antiproliferative MTS assay, A549 cells. The settings on record: Homo sapiens, A549, 72 h, compounds 1-23 and 47-52 median of experiments, 24-46 estimations and/or preliminary results, read-out: IC50 values: cell proliferation inhibition, A549. The protocol: Cell line #1: A549. Lung carcinoma cell line bearing KRas^G12S oncogenic mutation
as §1

For the compound `COc1cc(O)cc(CCOc2cc3c(cc2OC)CCN(C(=O)NCc2cocn2)C3c2ccc(C)cc2C)c1` (stereo not shown) [Compound 1], the IC50 in experiment [1] is 2000 nM; in experiment [2], 1500 nM; in experiment [3] it was greater than 1000 nM; in experiment [4] it was 1500 nM; in experiment [5] it was 2000 nM.

For the compound `COc1ccc(CCOc2cc3c(cc2OC)CCN(C(=O)NCc2cocn2)C3c2ccc(C)cc2C)cc1O` (stereo not shown) [Compound 2], the IC50 in experiment [1] is 300 nM; in experiment [2], 200 nM; in experiment [3], 299 nM; in experiment [4] it was 400 nM; in experiment [5], 1000 nM.

As to `COc1cc2c(cc1OCCc1cc(O)cc(Cl)c1)C(c1ccc(C)cc1C)N(C(=O)NCc1cocn1)CC2` (stereo not shown) [Compound 3], the IC50 in experiment [1] is greater than 2000 nM; in experiment [2], greater than 2000 nM; in experiment [3], greater than 1000 nM; in experiment [4] it was greater than 2000 nM; in experiment [5], greater than 2000 nM.

On to `COc1ccc(CCOc2cc3c(cc2OC)CCN(C(=O)NCc2cocn2)C3c2ccc(C)cc2C)cc1N` (stereo not shown) [Compound 4], for which the IC50 in experiment [1] was 400 nM; in experiment [2], 300 nM; in experiment [3], 556 nM; in experiment [4], 200 nM; in experiment [5] it was 900 nM.

Turning to `CCNC(=O)N1CCc2cc(OC)c(OCCc3ccc(OC)c(O)c3)cc2C1c1ccc(C)cc1C` (stereo not shown) [Compound 5, 1-(2,4-dimethylphenyl)-N-ethyl-7-(3-hydroxy-4-methoxyphenethoxy)-6-methoxy-3,4-dihydroisoquinoline-2(1H)-carboxamide], the IC50 in experiment [1] is 200 nM; in experiment [2] it was 100 nM; in experiment [3] it was 533 nM; in experiment [4], 100 nM; in experiment [5] it was 700 nM.

`CCNC(=O)N1CCc2cc(OC)c(OCCc3ccc(F)c(N)c3)cc2C1c1ccc(C)cc1C` (stereo not shown) [Compound 7]: the IC50 is 800 nM in experiment [1]; 600 nM in experiment [2]; 531 nM in experiment [3]; 900 nM in experiment [4]; 600 nM in experiment [5].

For `CCNC(=O)N1CCc2cc(OC)c(OCCc3ccc(OC)c([N+](=O)[O-])c3)cc2C1c1ccc(C)cc1C` (stereo not shown) [Compound 8], the IC50 in experiment [1] is 200 nM; in experiment [2] it was 200 nM; in experiment [3], greater than 3000 nM; in experiment [4], 200 nM; in experiment [5], 900 nM.

Regarding `CCNC(=O)N1CCc2cc(OC)c(OCCc3ccc(N)c(OC)c3)cc2C1c1ccc(C)cc1C` (stereo not shown) [Compound 9, 7-(4-amino-3-methoxyphenethoxy)-1-(2,4-dimethylphenyl)-N-ethyl-6-methoxy-3,4-dihydroisoquinoline-2(1H)-carboxamide], the IC50 in experiment [1] is 300 nM; in experiment [2], 200 nM; in experiment [3], 645 nM; in experiment [4] it was 400 nM; in experiment [5], 1000 nM.

With `CCNC(=O)N1CCc2cc(OC)c(OCCc3ccc(OC)c(N)c3)cc2C1c1ccc(C(F)(F)F)cc1C` (stereo not shown) [Compound 10], the IC50 in experiment [1] was 200 nM; in experiment [2] it was 100 nM; in experiment [3], 360 nM; in experiment [4], 300 nM; in experiment [5], 900 nM.

Consider `COc1cc(CCOc2cc3c(cc2OC)CCN(C(=O)NCc2ccon2)C3c2ccc(C(F)(F)F)cc2C)ccc1N` (stereo not shown) [Compound 39], for which the IC50 in experiment [1] was 600 nM; in experiment [2] it was 300 nM; in experiment [4] it was 600 nM; in experiment [5] it was greater than 2000 nM.

For `COc1ccc(C2c3cc(OCCc4ccc(N)c(OC)c4)c(OC)cc3CCN2C(=O)NCc2ccon2)c(C)c1` (stereo not shown) [Compound 40], the IC50 in experiment [1] was 300 nM; in experiment [2], 100 nM; in experiment [4] it was 300 nM; in experiment [5], 1000 nM.

Take `COc1cc(CCOc2cc3c(cc2OC)CCN(C(=O)NCc2ccon2)C3c2ccc(F)cc2C)ccc1N` (stereo not shown) [Compound 41]: the IC50 in experiment [1] was 700 nM; in experiment [2] it was 900 nM; in experiment [4], 900 nM; in experiment [5], greater than 2000 nM.

As to `COc1cc(CCOc2cc3c(cc2OC)CCN(C(=O)NCc2ccon2)C3c2ccc(Cl)cc2C)ccc1N` (stereo not shown) [Compound 42], the IC50 in experiment [1] was 300 nM; in experiment [2], 100 nM; in experiment [4], 300 nM; in experiment [5] it was 1000 nM.

In the case of `COc1cc(CCOc2cc3c(cc2OC)CCN(C(=O)NCC(F)(F)F)C3c2ccc(C)cc2C)ccc1N` (stereo not shown) [Compound 43], the IC50 in experiment [1] was 200 nM; in experiment [2], 100 nM; in experiment [4], 300 nM; in experiment [5], 1000 nM.

For the compound `COc1cc(CCOc2cc3c(cc2OC)CCN(C(=O)NCC(F)(F)F)C3c2ccc(C(F)(F)F)cc2C)ccc1N` (stereo not shown) [Compound 44], the IC50 in experiment [1] is 500 nM; in experiment [2], 300 nM; in experiment [4], 800 nM; in experiment [5] it was greater than 2000 nM.

For the compound `COc1ccc(C2c3cc(OCCc4ccc(N)c(OC)c4)c(OC)cc3CCN2C(=O)NCC(F)(F)F)c(C)c1` (stereo not shown) [Compound 45], the IC50 in experiment [1] is 300 nM; in experiment [2], 200 nM; in experiment [4] it was 600 nM; in experiment [5], 1000 nM.

Turning to `COc1cc(CCOc2cc3c(cc2OC)CCN(C(=O)NCC(F)(F)F)C3c2ccc(F)cc2C)ccc1N` (stereo not shown) [Compound 46], the IC50 in experiment [1] is 300 nM; in experiment [2] it was 100 nM; in experiment [4], 500 nM; in experiment [5], 1000 nM.

Regarding `COc1ccc(CCOc2cc3c(cc2OC)CCN(C(=O)N[C@H](C)C(F)(F)F)C3c2ccc(C)cc2C)cc1N` (stereo partly shown) [Compound 47], the IC50 was greater than 1000 nM in experiment [1]; 400 nM in experiment [2]; 963 nM in experiment [3]; 600 nM in experiment [4]; greater than 2000 nM in experiment [5].

As to `COc1ccc(CCOc2cc3c(cc2OC)CCN(C(=O)N[C@@H](C)C(F)(F)F)C3c2ccc(C)cc2C)cc1N` (stereo partly shown) [Compound 48], the IC50 in experiment [1] is 500 nM; in experiment [2] it was 40 nM; in experiment [3], 371 nM; in experiment [4] it was 100 nM; in experiment [5], greater than 1000 nM.

`COc1cc2c(cc1OCCc1ccc(OC)c([N+](=O)[O-])c1)C(c1ccc(C)cc1C)N(C(=O)NCc1cocn1)CC2` (stereo not shown) [Compound 49]: the IC50 in experiment [1] was 1500 nM; in experiment [2] it was greater than 1000 nM; in experiment [4] it was greater than 800 nM; in experiment [5] it was greater than 2000 nM.

For the compound `COc1ccc(C2c3cc(OCCc4ccc(OC)c(N)c4)c(OC)cc3CCN2C(=O)N[C@@H](C)C(F)(F)F)c(C)c1` (stereo partly shown) [Compound 50], the IC50 in experiment [1] was 200 nM; in experiment [2] it was 150 nM; in experiment [3], 767 nM; in experiment [4] it was 500 nM; in experiment [5], greater than 2000 nM.

For `CCNC(=O)N1CCc2cc(OC)c(OCCc3ccc(OC)c(N)c3)cc2C1c1ccc(Br)cc1C` (stereo not shown) [Compound 51], the IC50 in experiment [1] is 70 nM; in experiment [2] it was greater than 1000 nM; in experiment [3], 178 nM; in experiment [4] it was 150 nM; in experiment [5], 200 nM.

Regarding `CCNC(=O)N1CCc2cc(OC)c(OCCc3ccc(OC)c(N)c3)cc2C1c1ccc(N(C)C)cc1C` (stereo not shown) [Compound 52], the IC50 in experiment [1] is 1000 nM; in experiment [2] it was 200 nM; in experiment [3] it was greater than 1000 nM; in experiment [4], 1000 nM; in experiment [5], greater than 2000 nM.
